We go through seven compounds from patent publication US20140057915A1, “KINASE INHIBITORS” (TOPIVERT PHARMA LIMITED, priority 2012, published 2014).

The subject of one data set is d-U937 cells. As to the kind of experiment: Cell viability: MTT assay. Format: cell-based, human. To be noted: 1 μg/mL. An outline of the steps: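 Differentiated U937 cells exposed to compound at 1 or 10 μg/mL, either 4 h in 5% FCS or 24 h in 10% FCS RPMI1640. MTT then added for 1 h, formazan dissolved in DMSO and read at 550 nm. Viability loss given as % versus 0.5% DMSO vehicle; apparent gains appear negative.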
(In general: Formazan colour is commonly taken as a measure of viable cells.)

Data set [1] addresses T1, GSK3α (Homo sapiens, UniProt P49840). As to the kind of experiment: GSK 3α enzyme inhibition (FRET), Method 1. Format: biochemical. The note with it: Table 4a1. The essentials: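 Steps: preincubate GSK3α with compound 2 hr at room temperature; start reaction with peptide and ATP for 1 hr; develop with site-specific protease for 1 hr; measure fluorescence and take the coumarin/fluorescein ratio as the phosphorylation level.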

The subject of data set [2] is IL-8 release, d-U937 cells. As to the kind of experiment: LPS-induced IL-8 release in d-U937 cells. Format: cell-based. To be noted: Homo sapiens, dU937; Table 4c1; read-out: LPS Induced Release of Cytokine in d-U937 Cells, IL-8 IC50. An outline of the steps: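 IL-8 release after a 4 hr challenge with LPS (0.1 μg/mL, E. coli 0111:B4) following a 2 hr compound pretreatment. Cells were human U937 monocytes differentiated to macrophage-type with PMA 100 ng/mL for 48–72 hr. Relative 50% effective concentration derived from concentration–response data.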

The target in another data set is Syk (Homo sapiens, UniProt P43405). As to the kind of experiment: Syk enzyme inhibition (FRET). Format: biochemical. The essentials: (§1)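 2 hr RT enzyme + cpd (added solns 4/0.4/0.04/0.004 μg/mL); + FRET peptide (8 μM soln) + ATP soln (c-Src 800 μM, Syk 60 μM), 1 hr; protease development 1 hr; read donor/acceptor emission ratio.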
In another data set the test system is PBMC cells. As to the kind of experiment: Cell mitosis assay. Format: cell-based. To be noted: Homo sapiens, read-out: % Inhibition of mitosis in PBMC cells at 5 μg/mL. On the procedure:
PBMCs from healthy subjects are separated from whole blood (Quintiles, London, UK) using a density gradient (Histopaque®-1077, Sigma-Aldrich, Poole, UK). The PBMCs (3 million cells per sample) are subsequently treated with 2% PHA (Sigma-Aldrich, Poole, UK) for 48 hr, followed by a 20 hr exposure to varying concentrations of test compounds. At 2 hr before collection, PBMCs are treated with demecolcine (0.1 μg/mL; Invitrogen, Paisley, UK) to arrest cells in metaphase. […] Fluorescence is observed using an ATTUNE flow cytometer (Invitrogen, Paisley, UK), gating for lymphocytes.

In data set [3] the test system is TNFα release, d-U937 cells. As to the kind of experiment: LPS-induced TNFα release in d-U937 cells. The note with it: Homo sapiens, dU937; relative to 10 μg/mL BIRB796; Table 4c1; read-out: LPS Induced Release of Cytokine in d-U937 Cells, TNFα REC50. Format: cell-based. The essentials: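 U937 cells differentiated with PMA (100 ng/mL, 48–72 hr), pre-treated with compound for 2 hr, then stimulated with E. coli LPS (0.1 μg/mL) for 4 hr. Supernatant cytokine measured by sandwich ELISA; inhibition versus vehicle control, REC50 from concentration-response curve.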

The target of another data set is cSrc (Homo sapiens, UniProt P12931). As to the kind of experiment: c-Src enzyme inhibition (FRET). Format: biochemical. An outline of the steps: as §1
Data set [4] concerns ICAM-1 expression, BEAS2B cells. As to the kind of experiment: Poly I:C-induced ICAM-1 expression in BEAS2B cells. The data set is classed as cell-based. To be noted: Homo sapiens, BEAS-2B; read-out: Poly IC induced ICAM1 in BEAS2B, IC50. An outline of the steps:
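BEAS2B human bronchial epithelial cells pre-incubated 2 h with compound, then transfected with poly I:C (1 μg/mL) plus Oligofectamine. After 18 h, cell-surface ICAM-1 read by cell-based ELISA (A450–655), normalised to Crystal Violet cell number (A595); inhibition calculated against vehicle control at each concentration.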

In data set [5] the target is T1, GSK3α. As to the kind of experiment: GSK 3α enzyme inhibition (FRET), Method 2. Format: biochemical. The note with it: Table 4a2, different laboratory.
Another data set has as its system IL-8 release, PBMCs. As to the kind of experiment: LPS-induced IL-8 release in PBMC cells. Format: cell-based. To be noted: Homo sapiens, LPS stimulated, read-out: IC50 Values for Inhibition of Cytokine Release, PBMCs, IL-8. On the procedure: (b) LPS-Induced TNFα/IL-8 Release in PBMC Cells
Peripheral blood mononuclear cells (PBMCs) from healthy subjects are separated from whole blood using a density gradient (Lymphoprep, Axis-Shield Healthcare). The PBMCs are seeded in 96 well plates and treated with compounds at the desired concentration for 2 hours before addition of 1 ng/ml LPS (Escherichia Coli 0111:B4 from Sigma Aldrich) for 24 hours under normal tissue culture conditions (37° C., 5% CO2). The supernatant is harvested for determination of […] concentrations by sandwich ELISA (Duo-set, R&D systems) and read on the fluorescence microplate reader (Varioskan® Flash, ThermoFisher Scientific).

The test system of another data set is IL-2 release, PBMCs. As to the kind of experiment: IL-2 release in CD3/CD28 stimulated PBMC cells. The data set is classed as cell-based. The note with it: Homo sapiens, read-out: IC50 Values for Inhibition of Cytokine Release, PBMCs, IL-2. On the procedure:
(§2) (c) IL-2 and IFN Gamma Release in CD3/CD28 Stimulated PBMC Cells
(§3) PBMCs from healthy subjects are separated from whole blood using a density gradient (Lymphoprep, Axis-Shield Healthcare). Cells are added to a 96 well plate pre-coated with a mixture of […] monoclonal antibodies (0.3 ug/ml eBioscience and 3 ug/ml BD Pharmingen respectively). Compound at the desired concentration is then added to the wells and the plate left for 3 days under normal tissue culture conditions. Supernatants are harvested and IL-2 and IFN gamma release determined by Sandwich ELISA (Duo-set, R&D System). The IC50 is determined from the dose response curve.

For another data set, the system named is IFN gamma release, PBMCs. As to the kind of experiment: IFN gamma release in CD3/CD28 stimulated PBMC cells. The data set is classed as cell-based. The note with it: Homo sapiens, read-out: IC50 Values for Inhibition of Cytokine Release, PBMCs, IFNγ. On the procedure:
as §2, §3

The mark [6] stands for this setting: Table 4a2, different laboratory.

T1 sequence (P49840 whole entry): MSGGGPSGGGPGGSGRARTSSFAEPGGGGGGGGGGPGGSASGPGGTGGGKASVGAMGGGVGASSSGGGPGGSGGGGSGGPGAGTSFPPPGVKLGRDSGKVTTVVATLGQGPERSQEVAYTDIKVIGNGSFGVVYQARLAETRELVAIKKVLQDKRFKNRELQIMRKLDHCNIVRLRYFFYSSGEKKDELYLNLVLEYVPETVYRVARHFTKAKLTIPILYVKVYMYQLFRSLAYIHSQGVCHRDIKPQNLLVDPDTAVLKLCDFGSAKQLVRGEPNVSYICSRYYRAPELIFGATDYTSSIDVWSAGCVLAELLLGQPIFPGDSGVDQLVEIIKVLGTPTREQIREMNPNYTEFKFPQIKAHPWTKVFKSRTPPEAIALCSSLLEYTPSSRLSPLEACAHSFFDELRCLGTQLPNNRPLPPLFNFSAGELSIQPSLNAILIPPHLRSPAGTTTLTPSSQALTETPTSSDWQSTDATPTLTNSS
Chain of cSrc (P12931 whole entry): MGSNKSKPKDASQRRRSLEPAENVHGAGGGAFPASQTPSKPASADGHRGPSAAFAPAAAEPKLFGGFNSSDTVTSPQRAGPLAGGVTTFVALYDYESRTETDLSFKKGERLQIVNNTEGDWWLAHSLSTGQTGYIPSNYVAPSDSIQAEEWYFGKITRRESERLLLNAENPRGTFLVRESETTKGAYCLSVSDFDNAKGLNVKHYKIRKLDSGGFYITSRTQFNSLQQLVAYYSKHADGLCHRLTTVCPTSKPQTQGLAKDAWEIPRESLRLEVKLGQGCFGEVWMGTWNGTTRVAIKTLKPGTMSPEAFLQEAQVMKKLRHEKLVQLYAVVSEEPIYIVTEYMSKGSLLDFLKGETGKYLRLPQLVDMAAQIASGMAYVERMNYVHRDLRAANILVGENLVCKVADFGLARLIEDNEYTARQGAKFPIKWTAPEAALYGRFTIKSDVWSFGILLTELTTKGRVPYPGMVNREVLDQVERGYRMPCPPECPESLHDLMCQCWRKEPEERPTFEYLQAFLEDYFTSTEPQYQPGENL

By IC50 is commonly meant the point on the concentration scale where inhibition reaches its midpoint. As to `COc1cc(Nc2nccc(Oc3ccc(NC(=O)Nc4cc(C(C)C)nn4-c4ccc(C)cc4)c4ccccc34)n2)cc(C(=O)N2CCOCC2)c1` [Example 12, 1-(3-Isopropyl-1-(p-tolyl)-1H-pyrazol-5-yl)-3-(4-((2-((3-methoxy-5-(morpholine-4-carbonyl)phenyl)amino)pyrimidin-4-yl)oxy)naphthalen-1-yl)urea], the “Cell viability at time point in d-U937 cells, 4 h” value in the data set with d-U937 cells is “−ve (−ve and +ve indicate that the value is below and above respectively, the no significant effect threshold, defined as 30% inhibition at 1 μg/mL at the time point indicated)”. The “Cell viability at time point in d-U937 cells, 24 h” value (shortened to “Cell viability at time point … 24 h”) in the data set with d-U937 cells was “−ve (−ve and +ve indicate that the value is below and above respectively, the no significant effect threshold, defined as 30% inhibition at 1 μg/mL at the time point indicated)”. The IC50 on GSK3α [1] is 509 nM; in data set [2], 1 nM; on Syk (Table 4a1), 16 nM; on cSrc (Table 4a1), 5 nM; in data set [4], 2.5 nM. In addition, the inhibition at 5 µg/mL in the data set with PBMC cells was 27.8%. Besides, the EC50 in data set [3] was found to be 0.5 nM.

With `Cc1ccc(-n2nc(C(C)C)cc2NC(=O)Nc2ccc(Oc3ccnc(Nc4cc(C)cc(C(=O)NCCN5CCOCC5)c4)n3)c3ccccc23)cc1` [Example 44, 3-((4-((4-(3-(3-isopropyl-1-(p-tolyl)-1H-pyrazol-5-yl)ureido)naphthalen-1-yl)oxy)pyrimidin-2-yl)amino)-5-methyl-N-(2-morpholinoethyl)benzamide], the “Cell viability at time point in d-U937 cells, 4 h” value in the data set on d-U937 cells was “−ve (−ve and +ve indicate that the value is below and above respectively, the no significant effect threshold, defined as 30% inhibition at 1 μg/mL at the time point indicated)”. Also, in the data set on d-U937 cells, the “Cell viability at time point … 24 h” value was “−ve (−ve and +ve indicate that the value is below and above respectively, the no significant effect threshold, defined as 30% inhibition at 1 μg/mL at the time point indicated)”. Also, the IC50 at GSK3α [1] was found to be 3950 nM; in data set [2], 0.3 nM; at Syk (Table 4a1), 17 nM; against cSrc (Table 4a1) it was 9 nM; in [4] it was 1.9 nM. Also, in the data set on PBMC cells, the inhibition at 5 µg/mL amounted to 37.2%. Besides, in data set [3], the EC50 stood at 0.2 nM.

Take `COc1ccc(-n2nc(C(C)C)cc2NC(=O)Nc2ccc(Oc3ccnc(Nc4cc(OC)cc(C(=O)NCCO)c4)n3)c3ccccc23)cc1` [Example 65, N-(2-hydroxyethyl)-3-((4-((4-(3-(3-isopropyl-1-(4-methoxyphenyl)-1H-pyrazol-5-yl)ureido)naphthalen-1-yl)oxy)pyrimidin-2-yl)amino)-5-methoxybenzamide]: in the data set on d-U937 cells, the “Cell viability at time point in d-U937 cells, 4 h” value was “−ve (−ve and +ve indicate that the value is below and above respectively, the no significant effect threshold, defined as 30% inhibition at 1 μg/mL at the time point indicated)”. In the data set with d-U937 cells, the “Cell viability at time point … 24 h” value is “−ve (−ve and +ve indicate that the value is below and above respectively, the no significant effect threshold, defined as 30% inhibition at 1 μg/mL at the time point indicated)”. Besides, the concentration for half-maximal inhibition (IC50) at GSK3α [1] was above 14200 nM; in [2] it was 0.6 nM; against Syk (Table 4a1), 61 nM; against cSrc (Table 4a1), 8 nM; in data set [4], 8.3 nM. Moreover, in the data set on PBMC cells, the inhibition at 5 µg/mL turned out to be 36.7%. In addition, the EC50 in [3] was determined as 1.7 nM.

In the case of `C#Cc1cc(Nc2nccc(Oc3ccc(NC(=O)Nc4cc(C(C)(C)C#N)nn4-c4ccc(C)cc4)c4ccccc34)n2)cc(C(=O)NCCN2CCOCC2)c1` [Example 78, 3-((4-((4-(3-(3-(2-Cyanopropan-2-yl)-1-(p-tolyl)-1H-pyrazol-5-yl)ureido)-naphthalen-1-yl)oxy)pyrimidin-2-yl)amino)-5-ethynyl-N-(2-morpholinoethyl)benzamide], the IC50 against GSK3α [5] was found to be 2810 nM; with IL-8 release, PBMCs, 0.9 nM; against Syk (setting [6]), 23 nM; in the data set on IL-2 release, PBMCs it was 27.3 nM; in the data set on IFN gamma release, PBMCs, 2.4 nM; at cSrc (setting [6]), 8 nM. Further, in the data set on PBMC cells, the inhibition at 5 µg/mL was found to be 2.1%.

For the compound `C#Cc1cc(Nc2nccc(Oc3ccc(NC(=O)Nc4cc(C(C)(C)C)nn4-c4ccc(C)cc4)c4ccccc34)n2)cc(C(=O)NC(C)(C)CN2CCOCC2)c1` [Example 82, 3-((4-((4-(3-(3-(tert-Butyl)-1-(p-tolyl)-1H-pyrazol-5-yl)ureido)naphthalen-1-yl)oxy)pyrimidin-2-yl)amino)-5-ethynyl-N-(2-methyl-1-morpholinopropan-2-yl)-benzamide], the IC50 on GSK3α [5] is 12200 nM; in the data set with IL-8 release, PBMCs it was 7.1 nM; with IL-2 release, PBMCs it was 37.4 nM; in the data set on IFN gamma release, PBMCs it was 3.9 nM. Also, in the data set with PBMC cells, the inhibition at 5 µg/mL was -6.3%.

For `C#Cc1cc(Nc2nccc(Oc3ccc(NC(=O)Nc4cc(C(C)(C)C)nn4-c4ccc(OC)cc4)c4ccccc34)n2)cc(C(=O)NCCOC)c1` [Example 84, 3-((4-((4-(3-(3-(tert-Butyl)-1-(4-methoxyphenyl)-1H-pyrazol-5-yl)ureido)-naphthalen-1-yl)oxy)pyrimidin-2-yl)amino)-5-ethynyl-N-(2-methoxyethyl)benzamide], the IC50 against GSK3α [5] was at least 13800 nM; with IL-8 release, PBMCs, 1.6 nM; against Syk (setting [6]) it was 33 nM; in the data set with IL-2 release, PBMCs it was 16 nM; with IFN gamma release, PBMCs it was 2.2 nM; on cSrc (setting [6]) it was 15 nM. Also, the inhibition at 5 µg/mL in the data set with PBMC cells was 0.5%.

With `C#Cc1cc(Nc2nccc(Oc3ccc(NC(=O)Nc4cc(C(C)(C)C)nn4-c4ccc(OC)cc4)c4ccccc34)n2)cc(C(=O)N[C@@H](C)COC)c1` [Example 85, (S)-3-((4-((4-(3-(3-(tert-Butyl)-1-(4-methoxyphenyl)-1H-pyrazol-5-yl)ureido)-naphthalen-1-yl)oxy)pyrimidin-2-yl)amino)-5-ethynyl-N-(1-methoxypropan-2-yl)-benzamide], the IC50 against GSK3α [5] is 7950 nM; with IL-8 release, PBMCs, 2.8 nM; against Syk (setting [6]) it was 92 nM; in the data set on IL-2 release, PBMCs, 27.3 nM; with IFN gamma release, PBMCs, 3.1 nM; at cSrc (setting [6]), 33 nM. Further, in the data set on PBMC cells, the inhibition at 5 µg/mL came to 6.6%.
